Source: patent US20040235080A1, “Methods and reagents for detecting endotoxin” (priority 2001, published 2004)

Legend:
[1] = target: T1, recombinant Factor C (rFC) (Carcinoscorpius rotundicauda, UniProt Q26422); test: recombinant Factor C (rFC) assay with different detergents and detergent concentrations; assay type: biochemical; conditions: for Detergent concentration range for rFC inhibition / Detergent concentration range for rFC enhancing: 1 EU/ml EC-6 endotoxin, DPR-coumarin substrate, data after 30 minutes
T1 construct: made in house; host or cells: Culture supernatant, lot 031901I
T1 sequence (Q26422 26-1019): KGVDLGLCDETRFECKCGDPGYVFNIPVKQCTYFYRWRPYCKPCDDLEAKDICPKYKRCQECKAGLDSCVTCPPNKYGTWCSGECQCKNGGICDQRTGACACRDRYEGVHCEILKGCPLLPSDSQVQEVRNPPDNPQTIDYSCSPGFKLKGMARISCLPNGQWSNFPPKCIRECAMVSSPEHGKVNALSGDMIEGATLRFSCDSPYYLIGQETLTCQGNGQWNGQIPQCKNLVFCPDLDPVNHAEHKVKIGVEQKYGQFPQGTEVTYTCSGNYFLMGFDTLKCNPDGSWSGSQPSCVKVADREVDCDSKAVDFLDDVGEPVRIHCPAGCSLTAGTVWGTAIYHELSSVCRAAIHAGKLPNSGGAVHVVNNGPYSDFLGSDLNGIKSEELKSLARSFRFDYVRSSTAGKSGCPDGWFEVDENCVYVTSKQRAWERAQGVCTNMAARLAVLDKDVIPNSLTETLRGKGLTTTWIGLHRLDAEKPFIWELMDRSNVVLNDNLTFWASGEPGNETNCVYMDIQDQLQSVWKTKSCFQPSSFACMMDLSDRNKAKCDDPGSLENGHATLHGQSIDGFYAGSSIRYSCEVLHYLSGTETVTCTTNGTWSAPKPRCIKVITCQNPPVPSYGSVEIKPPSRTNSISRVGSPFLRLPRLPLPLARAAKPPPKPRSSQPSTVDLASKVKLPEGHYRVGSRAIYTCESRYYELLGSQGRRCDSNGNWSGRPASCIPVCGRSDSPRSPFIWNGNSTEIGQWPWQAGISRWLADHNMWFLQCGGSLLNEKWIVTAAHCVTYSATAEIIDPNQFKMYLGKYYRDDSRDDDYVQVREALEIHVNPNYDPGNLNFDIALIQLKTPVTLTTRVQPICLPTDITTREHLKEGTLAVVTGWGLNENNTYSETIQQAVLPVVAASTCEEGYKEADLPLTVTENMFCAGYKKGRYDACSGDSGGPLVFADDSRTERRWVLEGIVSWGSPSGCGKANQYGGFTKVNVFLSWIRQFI
Protocol: The recombinant Factor C (rFC) assay was carried out using 20 μl of each detergent (˜10× of final concentration), 150 μl of 1 EU/ml EC-6, 10 μl of rFC supernatant 031901I, 20 μl of 300 mM Tris, pH 8.0, and 20 μl of 0.55 mM DPR-coumarin substrate. The results of the assay were read at 38° C. using a Cytofluor reader set at 390/440 nm, 5 minutes per cycle, for 1 hour. The data were graphed after 30 minutes.

[2] = target: T2, recombinant Carcinoscorpius rotundicauda Factor C (Carcinoscorpius rotundicauda, UniProt Q26422); test: endotoxin assay of Examples 1 and 13 (two-step and one-step); assay type: biochemical; conditions: assay exemplified in Examples 1 and 13
T2 construct: made in house; host or cells: Sf9 insect cells, baculovirus (pFASTBAC1 / bacmid); the secreted protein is used as culture supernatant
T2 sequence (Q26422 26-1019): T1 sequence (Q26422 26-1019)
Protocol: Endotoxin was pre-incubated with culture medium containing recombinant Carcinoscorpius rotundicauda Factor C obtained from recombinant Factor C-producing Sf9 cells for 1 hour in assay buffer (30 mM Tris, pH 8.0, 30 mM NaCl, 0.3% lactose, and 0.0025% Zwittergent 3-14). The substrate N-t-Boc-Asp(Obzl)-Pro-Arg-7-Amido-4-methyl coumarin (DPR-coumarin) was added to the mixture to a final concentration of […]. The fluorescence generated from the cleavage of the substrate by activated Factor C was measured after 15-20 minutes. Results of a similar assay carried out using the substrate N-t-Boc-Val-Pro-Arg-7-Amido-4-methyl coumarin at a final concentration of 100 mM are shown in FIG. 5.
A one-step endotoxin assay can be carried out in a 96-well plate, using 100 μl each of blank and endotoxin standards. […] The plate is incubated at 37° C. for 1 hour. Excitation and emission are read at 390 and 440 nm, respectively, in a fluorescence microplate reader.

Molecule | width of the enhancing concentration range [1] | Detergent concentration range for rFC inhibition [1] | Detergent concentration range for rFC enhancing [1] | optimal concentration of the surfactant [2]
CCCCCCCCS[C@@H]1O[C@H](CO)[C@@H](O)[C@H](O)[C@H]1O [OTG, n-Octyl-beta-D-thioglycopyranoside] | narrow | >=0.5% | – | –
CCCCCCCCCCCCOS(=O)(=O)[O-].[Na+] [SDS, sodium dodecyl sulfate] | – | >=0.0004% | – | –
CCCCCCCCCCCC(=O)OCCOCCOCCOCCOCCOCCOCCOCCOCCOCCOCCOCCOCCOCCOCCOCCOCCOCCOCCOCCOCC(OCCOCCOCCOCCOCCOCCOCCOCCOCCOCCOCCOCCOCCOCCOCCOCCOCCOCCOCCOCCO)C1OCC(OCCOCCOCCOCCOCCOCCOCCOCCOCCOCCOCCOCCOCCOCCOCCOCCOCCOCCOCCOCCO)C1OCCOCCOCCOCCOCCOCCOCCOCCOCCOCCOCCOCCOCCOCCOCCOCCOCCOCCOCCOCCO (centres unmarked) [Tween 20, polyoxyethylene (20) sorbitan monolaurate] | wide | >0.5% | 0.001-0.5% | –
CCCCCCCC/C=C\CCCCCCCC(=O)OCCOCC(OCCO)C1OCC(OCCO)C1OCCO (centres unmarked) [Tween 80, polyoxyethylene (20) sorbitan monooleate] | wide | >0.25% | 0.001-0.25% | –
CCCCCCCCCCCCCC[N+](C)(C)CCCS(=O)(=O)[O-] [Zwittergent 3-14, N-tetradecyl-N,N-dimethyl-3-ammonio-1-propanesulfonate] | narrow | >=0.004% | – | 0.0025%
Triton X-100 | narrow | >=0.008% | – | –
